Experiment: Adding a small amount of 12% sodium hypochlorite aqueous solution to the cross-linking agent compound
Assay type: physicochemical
Details: small amount of 12% sodium hypochlorite aqueous solution added to the compound

| degradation product generated (confirmed by 1H-NMR) | observation upon adding oxidizing agent | Structure (SMILES) |
| --- | --- | --- |
| triethylene glycol | foaming occurred | C=C(C)C(=O)NNC(=O)OCCOCCOCCOC(=O)NNC(=O)C(=C)C [Formula (A1)] |
| succinic acid and glutamic acid | foaming occurred | C=CCOC(=O)NNC(=O)CCC(NC(=O)NNC(=O)CCC(=O)NNC(=O)NC(CCC(=O)NNC(=O)OCC=C)C(=O)NNC(=O)OCC=C)C(=O)NNC(=O)OCC=C (centres unmarked) [Formula (A8)] |
| compound of formula (C) | foaming occurred | C=C(C)C(=O)NNC(=O)c1ccc(OCC(O)COc2ccc(C(C)(C)c3ccc(OCC(O)COc4ccc(C(=O)NNC(=O)C(=C)C)cc4)cc3)cc2)cc1 (centres unmarked) [Formula (B), reference compound] |
| 1,6-hexanediol | foaming occurred | C=CCOC(=O)NNC(=O)OCCCCCCOC(=O)NNC(=O)OCC=C [Formula (A3)] |
| sodium 5-sulfoisophthalate | foaming occurred | NNC(=O)CCC(NC(=O)NNC(=O)c1cc(C(=O)NNC(=O)NC(=O)NC(CCC(=O)NN)C(=O)NN)cc(S(=O)(=O)[O-])c1)C(=O)NN.[Na+] (centres unmarked) [Formula (A6)] |

| Structure (SMILES) | degradation product generated (confirmed by 1H-NMR) | observation upon adding oxidizing agent |
| --- | --- | --- |
| C=CCOC(=O)NNC(=O)CCC(NC(=O)NNC(=O)c1cc(C(=O)NNC(=O)NC(CCC(=O)NNC(=O)OCC=C)C(=O)NNC(=O)OCC=C)cc(S(=O)(=O)[O-])c1)C(=O)NNC(=O)OCC=C.[Na+] (centres unmarked) [Formula (A7)] | sodium 5-sulfoisophthalate and glutamic acid | foaming occurred |

Experiment: Water solubility of degradation products in ion exchange water at 20° C.
Details: 0.3 g in 10 mL of ion exchange water

| water solubility | Structure (SMILES) |
| --- | --- |
| insoluble | CC(C)(c1ccc(OCC(O)COc2ccc(C(=O)O)cc2)cc1)c1ccc(OCC(O)COc2ccc(C(=O)O)cc2)cc1 (centres unmarked) [Formula (C)] |
| insoluble | O=C(O)c1cc(C(=O)O)cc(C(=O)O)c1 [trimesic acid] |

Same assay, conditions: 0.5 g in 10 mL of ion exchange water

| Structure (SMILES) | water solubility |
| --- | --- |
| O=C(O)CCCCCO [6-hydroxyhexanoic acid] | soluble |

Same assay, conditions: 2 g in 10 mL of ion exchange water

| water solubility | Structure (SMILES) |
| --- | --- |
| soluble | OCCOCCOCCO [triethylene glycol] |

Same assay, conditions: one gram in 10 mL of ion exchange water

| water solubility | Structure (SMILES) |
| --- | --- |
| soluble | OCCCCCCO [1,6-hexanediol] |
| soluble | OCCOCCOCCO [triethylene glycol] |
| soluble | O=C(O)c1cc(C(=O)O)cc(S(=O)(=O)O)c1 [5-sulfoisophthalic acid] |
| soluble | NCCCCCCN [hexamethylenediamine] |

Reference: patent publication US20260242563A1, “DEGRADABLE CROSSLINKING AGENT” (NAGASE CHEMTEX CORPORATION, priority 2023, published 2026)
